{"source": "patent US20200215537A1", "about": "“ULTRASENSITIVE CANTILEVER” (3P SENSE LIMITED, priority 2017, published 2020)", "key": {"[1]": {"tested_on": "L-VSR", "test": "Cantilever binding assay against L-VSR coated cantilevers", "settings": "for biomechanical force / signal response: 50 μM ligand, sodium phosphate buffer pH 7.4, L-VSR coated cantilevers; for signal response over concentration range: all concentrations of ligand", "method": "(§1) In the case of preparation of unpassivated cantilever, SAMs of D-VSR, L-VSR and inert PEG molecules were diluted to a concentration of 1 μM in pure ethanol. The diluted SAMs were individually injected into glass capillary tubes (King Precision Glass, Claremont, Calif., USA) which were arranged on the functionalization stage. The cantilevers were then functionalized by incubating them with individual SAMS inside the glass capillaries for 20 min. Care was taken to ensure that the hinge region was entirely covered with the SAM solution in order to ensure mechanical connectivity between the transduction arrays and hinge region.\n(§2) Finally, learning from enantiomeric molecules, although identical in structure and are mirror images of one another with different physical characteristics, could be used to test the impact of the regulatory connectivity networks on the biomechanical forces involved in molecular interactions. So it was inferred that in chiral species the level of complementarity between a drug and its target will lead to different assemblies across the mirror images of the surface receptors and this can be reflected in the distinguishable biomechanical forces. To test this concept the interaction of the D-VSR and its corresponding mirror image (L-VSR) (see, Cantilever functionalization with surface target molecules) with the antibiotic drug vancomycin was studied. D-VSR is an enantiomer predominantly found in bacterial cell walls whereas L-VSR is not produced by bacteria. […] The mechanical response obtained using a high concentration of Van (50 μM) against 100 μm wide parallel transduction arrays of D-VSR and L-VSR was initially tested. […] In contrast the signal response of Van against L-VSR was very small ˜−200 pN, approximately 20 times smaller than with D-VSR (FIG. 5a). The experiment was repeated using a wide range of different concentrations of Van (0.1-1000 μM) on at least four separate chips.\n(§3) Functionalized cantilever chips were mounted in a sealed liquid cell environment and a time-multiplexed optical laser readout system (Scentris, Veeco Instruments Inc., Santa Barbara, Calif., USA) was used to measure the cantilever bending. The laser alignment was considered successful if the difference between the minimum and maximum deflection was <5% when the cell temperature was raised by 1° C. for 10 min followed by 10 min cooling to room temperature. […]\n(§4) The biomechanical force data from ligand-receptor interactions were measured as follows: sodium phosphate buffer (pH 7.4, 0.1 M) was injected into the cell for either 3 or 10 min to establish a baseline. […] Cantilever bending signals were measured in a fixed temperature-controlled hood at 25° C. using a liquid flow rate of 30-180 μL min^−1. […]"}, "[2]": {"settings": "solution; cited from earlier work"}, "[3]": {"tested_on": "vancomycin susceptible receptor (VSR)", "test": "Cantilever binding assay, vancomycin against VSR coated cantilevers", "method": "as §1\nThe finding that a signal response is detectable even when the assembling of array networks is confined to only 30 μm of the geometrical width of the region covered while the corresponding geometeric length is fixed at 500 μm of the cantilever, prompted us to examine whether changing the dimensions of the cantilever itself whilst maintaining the mechanical connectivity of surface receptors has any impact on the signal sensitivity and reproducibility. This is because the dimensions of a sensing element can greatly impact on the signal response in several ways (1) the threshold size of the ligand capture cross-section area that is able to generate mechanical signaling decreases when the size of the sensing element is reduced, (2) the biomechanical force impacting on the sensing element is more pronounced for a narrow sensing element, and (3) the narrower the sensing element, the less rigid it is and the more responsive it will be to molecular forces. Further, continuous mechanical connectivity can be effected by the edging effects at the perimeter of the sensor itself and its impact would be more pronounced for narrower sensing elements (FIG. 1b). The effect on signal response by reducing the conventional cantilever width from 100 μm to 70 μm whilst keeping the length and thickness at 500 μm and 1 μm, respectively, was examined. These dimensions were chosen because they enable the narrowed cantilever to be used with standard instruments without the need for redesigning equipment. In addition, at this width the cantilever is less affected by the capillary forces and static charges which may render careful alignment of the scanning laser at the free-end more difficult. For this experiment vancomycin (Van) as the reporter molecule and vancomycin-susceptible receptor (or VSR)^21 as its target were used. Van is the Food and Drug Administration (FDA)-approved drug of last resort for clinical treatment of MRSA and clostridium difficile infections^38,39. This particular system was chosen because it gives relatively large signals and it has been previously shown that the quantitative Van-VSR binding constants can be measured^21 and so it can be used to redefine the limit of recognition of biologically relevant systems. The entire surface of the cantilever including the hinge region was coated with VSR using glass capillares (See Cantilever functionalization with surface target molecules). Artefacts that produce non-specific signals were overcome by performing differential measurements where the reference mercaptoundecyl tri(ethylene glycol) thiol (PEG)-coated cantilever signals was subtracted from the VSR signals. […] The signal response obtained from all three cantilevers was highly consistent and almost identical over a 60 min time period. Moreover, the compressive signal response was relatively high averaging −400±30 pN with a signal-to-noise ratio (SNR) of 7. […] Next, the impact of different concentrations on signal response initially fixed at 20, 50, 500 and 1000 nM (FIG. 4b-d) was examined. […] The thermodynamic pseudo-equilibrium signal response was attained at 60 and 50 min for 20 nM and 50 nM Van, respectively. In contrast, the thermodynamic pseudo-equilibrium was achieved within 6 min or less for Van concentrations ≥500 nM. […]"}, "[4]": {"settings": "SPR; cited from earlier work"}, "[5]": {"tested_on": "D-VSR", "test": "Cantilever binding assay against D-VSR coated cantilevers", "method": "as §1, §2, §3, §4"}}, "note": "Read-outs that look alike come from different tables or passages of the source."}
{"compound": "CN[C@H](CC(C)C)C(=O)N[C@H]1C(=O)N[C@@H](CC(N)=O)C(=O)N[C@H]2C(=O)N[C@H]3C(=O)N[C@H](C(=O)N[C@H](C(=O)O)c4cc(O)cc(O)c4-c4cc3ccc4O)[C@H](O)c3ccc(c(Cl)c3)Oc3cc2cc(c3O[C@@H]2O[C@H](CO)[C@@H](O)[C@H](O)[C@H]2O[C@H]2C[C@](C)(N)[C@H](O)[C@H](C)O2)Oc2ccc(cc2Cl)[C@H]1O", "note": "[Van, vancomycin]", "values": [{"measurement": "biomechanical force / signal response", "setting": "[1]", "value": "~−200", "unit": "pN"}, {"measurement": "signal response over concentration range", "setting": "[1]", "value": "only a small signal response"}, {"measurement": "Kd", "setting": "[2]", "value": 700, "unit": "nM"}, {"measurement": "signal response", "setting": "[3]; 500 pM Van, 100 μm wide cantilevers", "value": "no signal response"}, {"measurement": "mechanical force / signal response", "setting": "[3]; 500 pM Van, pH 7.4, small sized (70 μm wide) cantilever, three separate cantilevers", "value": "−400±30", "unit": "pN"}, {"measurement": "Van concentration at which signal response reached a plateau", "setting": "[3]; 0.0005 μM to 250 μM Van, narrow cantilevers", "value": 10, "unit": "µM"}, {"measurement": "time to thermodynamic pseudo-equilibrium signal response", "setting": "[3]; 20 nM Van", "value": 60, "unit": "min"}, {"measurement": "biomechanical force response", "setting": "[3]; 20 nM Van, small sized cantilever", "value": "~−500", "unit": "pN"}, {"measurement": "time to thermodynamic pseudo-equilibrium signal response", "setting": "[3]; 50 nM Van", "value": 50, "unit": "min"}, {"measurement": "biomechanical force response", "setting": "[3]; 50 nM Van, small sized cantilever", "value": "~−1500", "unit": "pN"}, {"measurement": "biomechanical force response", "setting": "[3]; 500 nM Van, small sized cantilever", "value": "~−3000", "unit": "pN"}, {"measurement": "mechanical force response", "setting": "[3]; 1 μM Van, 3 separate small sized cantilevers", "value": "~−5000±400", "unit": "pN"}, {"measurement": "signal response", "setting": "[3]; 1 μM Van, conventional 100 μm wide cantilevers", "value": "−120", "unit": "nm"}, {"measurement": "Kd", "setting": "[3]; 100 μm and 70 μm cantilevers, read-out: Kd (surface thermodynamic equilibrium dissociation constant, equation (1))", "value": "500 ± 100", "unit": "nM"}, {"measurement": "time to thermodynamic pseudo-equilibrium", "setting": "[3]; Van concentrations ≥500 nM", "value": "≤ 6", "unit": "min"}, {"measurement": "reversibility of signal response", "setting": "[3]; all concentrations of Van", "value": "reversible"}, {"measurement": "mechanical forces arising from [Van] against VSR (plot)", "setting": "[3]; large sized cantilever", "value": "~−3800", "unit": "pN"}, {"measurement": "mechanical forces arising from [Van] against VSR (plot)", "setting": "[3]; small sized cantilever", "value": "~−6900", "unit": "pN"}, {"measurement": "Kd", "setting": "[4]", "value": "1000 ± 300", "unit": "nM"}, {"measurement": "ratio of signal response D-VSR versus L-VSR", "setting": "[5]; 50 μM ligand", "value": "approximately 20 times"}, {"measurement": "ligand concentration at which plateau was reached", "setting": "[5]; 0.1-1000 μM Van", "value": 50, "unit": "µM"}]}
{"compound": "ristocetin", "values": [{"measurement": "biomechanical force / signal response", "setting": "[1]", "value": "~−2000", "unit": "pN"}, {"measurement": "signal response over concentration range", "setting": "[1]", "value": "remained small compared to D-VSR"}, {"measurement": "ratio of signal response D-VSR versus L-VSR", "setting": "[5]; 50 μM ligand", "value": "approximately 3 times"}, {"measurement": "biomechanical force / mechanical response", "setting": "[5]; 50 μM ligand, sodium phosphate buffer pH 7.4, D-VSR coated 100 μm wide cantilevers", "value": "~−5000", "unit": "pN"}]}
